# Data: patent EP0821958A2 (ELI LILLY AND COMPANY, priority 1996, dated 1998)
# Columns and labels:
# [1] = biological target: muscarinic cholinergic receptors; experiment: 3H-oxotremorine-M binding inhibition (oxotremorine-M versus N-methylscopolamine binding studies); conditions: inhibition of binding of 3H-oxotremorine-M; read-out: inhibition constant (Ki)
# m4 receptors = m4 receptors (Homo sapiens, UniProt P08173); type: cell-based; conditions: CHO m4 cells treated with pertussis toxin
# D2 receptor subtype = D2 receptor subtype (Homo sapiens, UniProt P14416); experiment: Pharmacological studies at the D2 receptor subtype
# Sequence of D2 receptor subtype (P14416 whole entry): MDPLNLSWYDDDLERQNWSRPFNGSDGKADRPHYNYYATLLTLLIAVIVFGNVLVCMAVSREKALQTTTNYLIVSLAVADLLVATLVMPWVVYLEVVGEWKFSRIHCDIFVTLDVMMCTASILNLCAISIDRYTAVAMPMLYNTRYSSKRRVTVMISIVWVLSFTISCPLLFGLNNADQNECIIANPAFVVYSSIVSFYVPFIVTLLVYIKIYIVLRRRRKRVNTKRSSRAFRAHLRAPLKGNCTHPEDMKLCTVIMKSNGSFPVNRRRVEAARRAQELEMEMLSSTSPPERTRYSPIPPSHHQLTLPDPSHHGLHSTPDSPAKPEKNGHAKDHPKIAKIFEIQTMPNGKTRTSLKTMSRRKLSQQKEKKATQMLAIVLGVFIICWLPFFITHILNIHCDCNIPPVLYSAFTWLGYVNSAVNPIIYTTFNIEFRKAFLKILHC
# Sequence of m4 receptors (P08173 whole entry): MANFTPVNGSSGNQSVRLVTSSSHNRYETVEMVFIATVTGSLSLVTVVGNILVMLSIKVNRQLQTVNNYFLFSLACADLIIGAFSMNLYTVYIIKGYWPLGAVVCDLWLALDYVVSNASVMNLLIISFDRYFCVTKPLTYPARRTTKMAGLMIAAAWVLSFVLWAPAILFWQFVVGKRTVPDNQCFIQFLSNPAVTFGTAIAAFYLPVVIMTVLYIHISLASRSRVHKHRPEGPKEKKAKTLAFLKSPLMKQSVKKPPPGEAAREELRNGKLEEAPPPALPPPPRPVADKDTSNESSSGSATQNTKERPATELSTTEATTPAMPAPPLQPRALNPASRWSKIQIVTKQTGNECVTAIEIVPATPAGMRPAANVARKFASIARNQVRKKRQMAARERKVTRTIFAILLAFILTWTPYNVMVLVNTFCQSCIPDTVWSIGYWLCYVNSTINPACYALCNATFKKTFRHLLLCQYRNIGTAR
compound,measurement,setting,value
"CCCCCCOc1nsnc1C1=CCCN(C)C1 [xanomeline, 3-(4-hexyloxy-1,2,5-thiadiazol-3-yl)-1,2,5,6-tetrahydro-1-methylpyridine]",Ki,[1],2 nM
same,formation of cAMP,m4 receptors,efficaciously and potently stimulated the formation of cAMP
same,activity at the D2 receptor subtype,D2 receptor subtype,active
